The target in this test is T1, human MAGL (hMAGL) (Homo sapiens, UniProt Q99685).
T1 sequence (Q99685 1-303): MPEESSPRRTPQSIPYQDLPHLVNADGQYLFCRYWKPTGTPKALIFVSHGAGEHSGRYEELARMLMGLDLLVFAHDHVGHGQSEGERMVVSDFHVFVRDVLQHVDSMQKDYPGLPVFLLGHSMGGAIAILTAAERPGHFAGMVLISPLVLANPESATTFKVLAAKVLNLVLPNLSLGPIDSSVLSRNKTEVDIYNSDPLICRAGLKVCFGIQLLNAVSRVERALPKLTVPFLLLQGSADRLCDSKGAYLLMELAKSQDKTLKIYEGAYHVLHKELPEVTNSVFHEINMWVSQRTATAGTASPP
Nature of the test: Human MAGL assay. The settings on record: 10 μM compound concentration. In kind it is biochemical.

One substance from PMC9041313 (RSC Advances, 2021) can be followed below.

Consider 8-prenylnaringenin [NP-2], for which the “inhibition% against hMAGL” value is reported as “over 40%”.
